Tests used:
[1] = molecular target: T1, CtNDT (2′-deoxyribonucleoside/ribonucleoside transferase, dNDT) (Chroococcidiopsis thermalis, UniProt K9TVX3, E88A); test: stopped-flow tryptophan fluorescence; kon […] ^–[…] s^–[…], koff […] s^–[…]; format: binding; settings: read-out: stopped-flow tryptophan fluorescence; kon 0.76 μM^-1 s^-1, koff 39.3 s^-1
T1 construct: gene Chro_1188

[2] = molecular target: T2, CtNDT (2′-deoxyribonucleoside/ribonucleoside transferase, dNDT) (Chroococcidiopsis thermalis, UniProt K9TVX3); test: stopped-flow fluorescence ([…]′-deoxyribosylation […] s^–[…]); HPLC steady-state kinetics (kcat/KM); format: binding
T2 construct: gene Chro_1188
T2 sequence (K9TVX3 1-155): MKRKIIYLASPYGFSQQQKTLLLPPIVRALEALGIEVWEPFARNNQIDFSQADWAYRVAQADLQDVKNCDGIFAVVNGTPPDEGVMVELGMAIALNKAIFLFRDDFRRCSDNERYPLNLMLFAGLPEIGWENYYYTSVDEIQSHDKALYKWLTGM

[3] = molecular target: T2, CtNDT (2′-deoxyribonucleoside/ribonucleoside transferase, dNDT); test: HPLC steady-state transglycosylation kinetics (kcat); format: biochemical
[4] = molecular target: T2, CtNDT (2′-deoxyribonucleoside/ribonucleoside transferase, dNDT); test: ITC; co-crystal structure; format: binding
[5] = molecular target: T2, CtNDT (2′-deoxyribonucleoside/ribonucleoside transferase, dNDT); test: crystal structure of the covalent 2-difluoro-2-deoxyribosyl enzyme after cocrystallization; format: binding
[6] = molecular target: T2, CtNDT (2′-deoxyribonucleoside/ribonucleoside transferase, dNDT); test: ITC; stopped-flow fluorescence; format: binding
[7] = molecular target: T3, CtNDT (2′-deoxyribonucleoside/ribonucleoside transferase, dNDT) (Chroococcidiopsis thermalis, UniProt K9TVX3, D62N); test: co-crystal structure; format: binding
T3 construct: gene Chro_1188

[8] = molecular target: Chroococcidiopsis thermalis nucleoside 2'-deoxyribosyltransferase (CtNDT), wild type (Chroococcidiopsis thermalis PCC 7203) (UniProt K9TVX3); test: SEC; size exclusion of purified CtNDT in solution (Figure S1); conditions not shown
[9] = substrate: Nc1ncnc2c1ncn2[C@@H]1O[C@H](CO)[C@@H](O)[C@H]1O; test: crystal structure of ribosylated enzyme after cocrystallization; HPLC steady-state kinetics (KM); format: biochemical, Chroococcidiopsis thermalis; settings: ribosyl covalent on catalytic glutamate E88; D62 near […]′-OH and […]′-OH
Text: crystal structure of ribosylated enzyme after cocrystallization; HPLC steady-state kinetics (KM) on CtNDT (2′-deoxyribonucleoside/ribonucleoside transferase, dNDT) | determined the structure of a ribosylated enzyme intermediate by cocrystallization of wild-type CtNDT in the presence of Ado

For Nc1ncnc2c1ncn2[C@H]1C[C@H](O)[C@@H](CO)O1 [2′-deoxyadenosine], the koff [1] was 39.3 ± 0.7 s⁻¹ and the “stopped-flow fluorescence (2′-deoxyribosylation 532 s^-1); HPLC steady-state kin” value [2] was 50.5 ± 12.2 mM^–1 s^–1.

With Nc1nc2c(ncn2[C@H]2C[C@H](O)[C@@H](CO)O2)c(=O)[nH]1 [2′-deoxyguanosine] the “HPLC steady-state transglycosylation kinetics (kcat)” value [3] was 6.9 ± 0.7 s^–1.

O=c1[nH]cnc2c(CN3C[C@H](CO)[C@@H](O)C3)c[nH]c12 [DADme–immucillin-H] showed a Kd [4] of 0.009 ± 0.005 µM.

For Nc1ccn([C@@H]2O[C@H](CO)[C@@H](O)C2(F)F)c(=O)n1 [Gemcitabine], the “crystal structure of the covalent 2-difluoro-2-deoxyribosyl enzyme after cocryst” value [5] was “structure of a 2-difluoro-2-deoxy-ribosylated CtNDT after cocrystallization with Gemcitabine”.

With O=c1[nH]cnc2c([C@@H]3N[C@H](CO)[C@@H](O)[C@H]3O)c[nH]c12 [immucillin-H] the Kd [6] was 78.2 ± 6.6 µM and the co-crystal structure [7] was “(b) CtNDTD62N bound to immucillin-H”.

Molecule “Chroococcidiopsis thermalis nucleoside 2'-deoxyribosyltransferase (CtNDT), wild type (from UniProt K9TVX3 1-155) (enzyme)” has a stoichiometry N [8] of 4.

B1: CtNDT (2′-deoxyribonucleoside/ribonucleoside transferase, dNDT) (Chroococcidiopsis thermalis PCC 7203) (protein)
chain: T2 sequence (K9TVX3 1-155)
Work on B1 yielded a Km [9] of 250 ± 50 µM.

— paper PMC10913048, “Snapshots of the Reaction Coordinate of a Thermophilic 2′-Deoxyribonucleoside/ribonucleoside Transferase” (ACS Catalysis, 2024)
